This passage reports IC50 results from ChEMBL document CHEMBL1153084, “Synthesis and HMG-CoA reductase inhibition of 2-cyclopropyl-4-thiophenyl-quinoline mevalonolactones” (Bioorg Med Chem, 2009).

Molecules are shown by their SMILES. pIC50: −log10 of the molar value.

In this experiment the target is T1, 3-hydroxy-3-methylglutaryl-coenzyme A reductase (Homo sapiens, UniProt P04035).
T1 sequence (P04035 whole entry): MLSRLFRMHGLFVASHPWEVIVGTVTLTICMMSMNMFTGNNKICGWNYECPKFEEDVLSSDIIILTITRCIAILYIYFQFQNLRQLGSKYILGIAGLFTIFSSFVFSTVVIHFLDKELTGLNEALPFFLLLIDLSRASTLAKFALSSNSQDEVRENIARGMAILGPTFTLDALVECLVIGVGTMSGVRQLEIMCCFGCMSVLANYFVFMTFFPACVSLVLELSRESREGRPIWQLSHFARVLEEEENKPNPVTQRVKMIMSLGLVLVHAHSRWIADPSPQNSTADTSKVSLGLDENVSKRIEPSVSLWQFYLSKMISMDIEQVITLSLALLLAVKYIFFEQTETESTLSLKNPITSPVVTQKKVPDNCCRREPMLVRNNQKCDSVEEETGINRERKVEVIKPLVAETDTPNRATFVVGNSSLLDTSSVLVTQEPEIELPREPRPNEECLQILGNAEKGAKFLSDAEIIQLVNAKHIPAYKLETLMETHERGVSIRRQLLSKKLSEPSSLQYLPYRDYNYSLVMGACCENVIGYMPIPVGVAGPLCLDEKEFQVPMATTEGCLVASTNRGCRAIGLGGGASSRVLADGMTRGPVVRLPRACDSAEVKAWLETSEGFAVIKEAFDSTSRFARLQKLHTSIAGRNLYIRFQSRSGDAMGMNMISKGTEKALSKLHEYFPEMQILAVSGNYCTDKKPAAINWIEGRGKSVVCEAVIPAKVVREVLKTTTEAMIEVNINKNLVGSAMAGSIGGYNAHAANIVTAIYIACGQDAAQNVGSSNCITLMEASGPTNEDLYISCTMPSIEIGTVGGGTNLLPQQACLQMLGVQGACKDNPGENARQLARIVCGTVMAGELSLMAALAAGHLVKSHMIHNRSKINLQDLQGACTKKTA
Briefly: Inhibition of HMG CoA reductase by spectrophotometry.

As for `O=C(O)C[C@H](O)C[C@H](O)/C=C/c1c(C2CC2)nc2ccccc2c1-c1ccc(F)cc1` [PITAVASTATIN CALCIUM], the pIC50 is 5.05.
Then `O=C1C[C@H](O)C[C@@H](/C=C/c2c(C3CC3)nc3ccccc3c2Sc2ccc(F)cc2)O1`, with 4.20; and `COc1ccc2nc(C3CC3)c(/C=C/[C@@H]3C[C@@H](O)CC(=O)O3)c(Sc3ccc(C(C)C)cc3)c2c1`, with 4.38.
Molecule `COc1ccc2nc(C3CC3)c(/C=C/[C@@H]3C[C@@H](O)CC(=O)O3)c(Sc3ccc(F)cc3)c2c1` showed a pIC50 of 4.59.
Molecule `CC(C)c1ccc(Sc2c(/C=C/[C@@H]3C[C@@H](O)CC(=O)O3)c(C3CC3)nc3ccccc23)cc1` showed a pIC50 of 4.95.
For the molecule `COc1cccc(Sc2cc3nc(C4CC4)c(/C=C/[C@@H]4C[C@@H](O)CC(=O)O4)c(Sc4cccc(OC)c4)c3cc2F)c1`, the pIC50 was 5.15.
As to `COc1cccc(Sc2c(/C=C/[C@@H]3C[C@@H](O)CC(=O)O3)c(C3CC3)nc3cc(F)c(F)cc23)c1`, the pIC50 is 3.44.
`CC(C)c1ccc(Sc2c(/C=C/[C@@H]3C[C@@H](O)CC(=O)O3)c(C3CC3)nc3cc(F)c(F)cc23)cc1` had a pIC50 of 3.12.
Consider `COc1cccc(Sc2c(/C=C/[C@@H]3C[C@@H](O)CC(=O)O3)c(C3CC3)nc3ccc(F)cc23)c1`, for which the pIC50 was 5.25.
In turn, `O=C1C[C@H](O)C[C@@H](/C=C/c2c(C3CC3)nc3cc(Sc4ccc(F)cc4)c(F)cc3c2Sc2ccc(F)cc2)O1` had a pIC50 of 4.34.
`O=C1C[C@H](O)C[C@@H](/C=C/c2c(C3CC3)nc3ccc(F)cc3c2Sc2ccc(F)cc2)O1` had a pIC50 of 5.16.

For orientation: pIC50 means the negative decadic logarithm of the IC50, by convention in mol/L.
